The target of assay [1] is Apoptotic protease-activating factor 1 (Homo sapiens, UniProt O14727). The format is functional.
Assay [2] has as its target Intestinal-type alkaline phosphatase (Homo sapiens, UniProt P09923). Kind of assay: inhibition of human intestinal alkaline phosphatase – biochemical, dose response (AID 488876). Format: functional.
Assay [3] deals with T1, Alkaline phosphatase, tissue-nonspecific isozyme (Homo sapiens, UniProt P05186).
T1 sequence (P05186 whole entry): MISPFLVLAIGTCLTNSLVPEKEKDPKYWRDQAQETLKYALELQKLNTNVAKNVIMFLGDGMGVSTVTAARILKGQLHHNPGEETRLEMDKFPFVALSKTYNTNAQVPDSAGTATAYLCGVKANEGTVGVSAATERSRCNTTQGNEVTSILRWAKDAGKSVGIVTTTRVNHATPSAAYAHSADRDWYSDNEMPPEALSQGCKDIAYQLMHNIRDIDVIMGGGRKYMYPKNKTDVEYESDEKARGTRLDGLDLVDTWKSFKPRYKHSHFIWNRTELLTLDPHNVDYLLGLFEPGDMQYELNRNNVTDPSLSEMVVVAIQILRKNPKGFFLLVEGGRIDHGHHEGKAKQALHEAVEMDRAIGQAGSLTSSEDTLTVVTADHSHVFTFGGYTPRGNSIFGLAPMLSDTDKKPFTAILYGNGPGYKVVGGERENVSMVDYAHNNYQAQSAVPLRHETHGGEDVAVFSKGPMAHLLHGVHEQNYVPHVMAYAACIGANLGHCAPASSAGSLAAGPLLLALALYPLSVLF
Kind of assay: TNAP enzyme inhibition by screening hits, dose response, selectivity assay for mouse IAP inhibitor project, biochemical, human TNAP, uHTS hits (AID 488906). Format: functional.

In assay [4] the target is T2, 1-phosphatidylinositol 4,5-bisphosphate phosphodiesterase beta-3 (Homo sapiens, UniProt Q01970).
T2 sequence (Q01970 whole entry): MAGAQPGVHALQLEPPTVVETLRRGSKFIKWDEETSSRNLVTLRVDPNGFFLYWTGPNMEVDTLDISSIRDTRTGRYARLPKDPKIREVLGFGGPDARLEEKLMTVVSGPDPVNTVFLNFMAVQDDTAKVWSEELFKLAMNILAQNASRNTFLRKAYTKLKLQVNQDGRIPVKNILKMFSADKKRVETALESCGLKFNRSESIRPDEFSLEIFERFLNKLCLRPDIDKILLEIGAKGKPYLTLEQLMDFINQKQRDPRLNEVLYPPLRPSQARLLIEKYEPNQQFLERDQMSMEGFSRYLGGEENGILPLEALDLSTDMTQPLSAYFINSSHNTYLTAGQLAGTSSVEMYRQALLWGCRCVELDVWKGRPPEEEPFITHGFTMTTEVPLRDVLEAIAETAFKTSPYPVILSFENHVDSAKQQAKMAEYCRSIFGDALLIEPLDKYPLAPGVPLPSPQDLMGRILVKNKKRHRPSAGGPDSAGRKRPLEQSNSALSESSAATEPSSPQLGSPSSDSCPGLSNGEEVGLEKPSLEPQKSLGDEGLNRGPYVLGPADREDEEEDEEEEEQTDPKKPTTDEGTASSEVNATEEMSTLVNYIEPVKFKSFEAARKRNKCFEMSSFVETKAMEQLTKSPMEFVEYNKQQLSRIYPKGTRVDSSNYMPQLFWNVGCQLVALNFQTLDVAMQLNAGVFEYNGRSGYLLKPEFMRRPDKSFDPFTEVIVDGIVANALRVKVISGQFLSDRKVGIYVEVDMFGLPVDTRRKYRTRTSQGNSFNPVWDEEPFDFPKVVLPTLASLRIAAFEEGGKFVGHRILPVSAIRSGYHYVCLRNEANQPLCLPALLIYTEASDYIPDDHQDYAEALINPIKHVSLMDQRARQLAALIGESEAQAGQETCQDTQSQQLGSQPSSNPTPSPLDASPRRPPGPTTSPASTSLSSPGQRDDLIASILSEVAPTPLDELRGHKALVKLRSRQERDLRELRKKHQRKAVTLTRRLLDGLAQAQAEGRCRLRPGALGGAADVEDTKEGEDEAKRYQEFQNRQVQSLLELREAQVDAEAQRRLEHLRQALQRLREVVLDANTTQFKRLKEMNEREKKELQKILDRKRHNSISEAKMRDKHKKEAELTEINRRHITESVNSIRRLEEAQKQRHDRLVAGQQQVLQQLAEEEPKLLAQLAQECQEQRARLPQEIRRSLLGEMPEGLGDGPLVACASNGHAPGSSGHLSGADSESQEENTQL
Kind of assay: Fluorescence-based biochemical high throughput dose response assay to identify inhibitors of phospholipase C isozymes (PLC-B3).

The next assay deals with Troponin, cardiac muscle (Homo sapiens, UniProt P19429+P45379+P63316). The assay can be described thus: inhibitors of cardiac thin filament calcium sensitivity, dose response, biochemical, fluorescence, cardiac regulated thin filaments, triplicate IC50 (AID 504742). Format: protein-complex assay.
Assay [5] has as its target T3, Zinc finger protein mex-5 (Caenorhabditis elegans, UniProt Q9XUB2).
T3 sequence (Q9XUB2 whole entry): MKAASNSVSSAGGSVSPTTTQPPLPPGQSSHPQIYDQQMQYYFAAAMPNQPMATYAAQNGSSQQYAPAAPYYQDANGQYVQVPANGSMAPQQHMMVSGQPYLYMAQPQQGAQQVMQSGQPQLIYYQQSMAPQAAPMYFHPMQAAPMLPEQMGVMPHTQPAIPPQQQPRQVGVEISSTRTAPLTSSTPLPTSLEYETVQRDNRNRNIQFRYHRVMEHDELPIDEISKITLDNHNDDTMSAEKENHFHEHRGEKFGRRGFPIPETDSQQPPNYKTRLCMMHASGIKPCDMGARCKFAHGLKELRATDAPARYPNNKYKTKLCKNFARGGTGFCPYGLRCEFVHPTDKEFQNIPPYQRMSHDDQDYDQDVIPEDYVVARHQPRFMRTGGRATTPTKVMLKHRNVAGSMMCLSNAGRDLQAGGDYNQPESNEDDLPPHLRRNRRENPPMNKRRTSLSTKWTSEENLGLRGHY
Kind of assay: MEX-5/TCR-2 RNA interaction inhibitors, dose response, biochemical, C. elegans, fluorescence polarization (AID 1960). A general note: Fluorescence polarisation rises when a labelled molecule tumbles more slowly, as on binding a larger partner.

Assay [6] concerns the target Mitogen-activated protein kinase kinase kinase kinase 4 (Homo sapiens, UniProt O95819). The format is functional.
The target in assay [7] is Mitogen-activated protein kinase 14 (Homo sapiens, UniProt Q16539). Format: functional.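 Further: part of a kinome-wide panel, MAPK14 entry.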
Another assay concerns CHO. The assay can be described thus: cytotoxicity in TLR9-MyD88 CHO cells, dose response, cytotoxicity control for TLR9-MyD88 binding inhibitor project, cell-based, luminescence (AID 588339).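 Further: CHO cells stably coexpressing TLR9 and MyD88 fusions from primary screen; compound exposure lasted 48 hours before viability readout.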 Format: functional, hamster. The settings on record: Cricetulus griseus.
Assay [8] deals with Sphingosine 1-phosphate receptor 1 (Homo sapiens, UniProt P21453). Format: functional.
Assay [9] has as its target Glycogen synthase kinase-3 alpha (Homo sapiens, UniProt P49840). The format is functional.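 Further: GSK3A result taken from a broad kinome-wide kinase panel.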
Assay [10] deals with Serine/threonine-protein kinase Chk1 (Homo sapiens, UniProt O14757). The format is functional.
The nature of assay [11]: NIH-3T3 fibroblast cytotoxicity, dose response, cytotoxicity control for antifungal single agent project, cell-based, Alamar Blue, dry powder (AID 602188). Format: functional. A general note: Alamar Blue is a resazurin reagent that responds to reducing activity.
The next assay in a line: cells. The format is functional, cell-based.

SMILES strings stand for the structures. The source made the active and inactive calls.

Chain of Apoptotic protease-activating factor 1 (O14727 whole entry): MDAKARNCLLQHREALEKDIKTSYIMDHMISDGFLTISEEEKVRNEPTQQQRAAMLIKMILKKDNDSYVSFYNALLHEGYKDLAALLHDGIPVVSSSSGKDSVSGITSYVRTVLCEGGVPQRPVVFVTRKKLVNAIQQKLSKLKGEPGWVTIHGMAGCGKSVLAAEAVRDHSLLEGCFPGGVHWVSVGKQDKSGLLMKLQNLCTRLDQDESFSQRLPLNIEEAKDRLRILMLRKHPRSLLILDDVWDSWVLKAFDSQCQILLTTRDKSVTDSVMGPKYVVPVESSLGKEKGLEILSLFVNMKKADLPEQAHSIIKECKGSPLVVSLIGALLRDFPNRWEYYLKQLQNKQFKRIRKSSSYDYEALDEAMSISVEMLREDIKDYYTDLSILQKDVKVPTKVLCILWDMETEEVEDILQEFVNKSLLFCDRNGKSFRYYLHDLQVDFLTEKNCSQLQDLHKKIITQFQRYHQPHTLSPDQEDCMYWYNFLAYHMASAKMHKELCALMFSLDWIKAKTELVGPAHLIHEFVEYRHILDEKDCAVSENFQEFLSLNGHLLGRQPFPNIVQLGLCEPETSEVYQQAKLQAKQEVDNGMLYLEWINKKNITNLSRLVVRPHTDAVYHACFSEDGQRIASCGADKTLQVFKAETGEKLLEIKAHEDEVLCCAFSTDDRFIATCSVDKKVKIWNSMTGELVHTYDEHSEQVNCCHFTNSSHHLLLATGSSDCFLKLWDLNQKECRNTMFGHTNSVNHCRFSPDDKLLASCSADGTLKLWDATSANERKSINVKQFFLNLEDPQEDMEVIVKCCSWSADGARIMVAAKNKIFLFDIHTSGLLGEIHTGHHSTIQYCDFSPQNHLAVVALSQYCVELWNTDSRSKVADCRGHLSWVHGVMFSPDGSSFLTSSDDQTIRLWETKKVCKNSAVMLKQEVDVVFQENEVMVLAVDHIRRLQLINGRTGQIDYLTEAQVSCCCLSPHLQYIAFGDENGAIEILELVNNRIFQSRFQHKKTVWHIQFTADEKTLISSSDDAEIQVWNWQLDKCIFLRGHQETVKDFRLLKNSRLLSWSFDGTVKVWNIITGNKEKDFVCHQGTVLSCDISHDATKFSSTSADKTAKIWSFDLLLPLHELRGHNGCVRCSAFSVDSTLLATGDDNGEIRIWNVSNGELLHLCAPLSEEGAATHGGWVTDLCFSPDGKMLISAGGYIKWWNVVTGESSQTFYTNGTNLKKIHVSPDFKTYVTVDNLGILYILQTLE
Chain of Glycogen synthase kinase-3 alpha (P49840 whole entry): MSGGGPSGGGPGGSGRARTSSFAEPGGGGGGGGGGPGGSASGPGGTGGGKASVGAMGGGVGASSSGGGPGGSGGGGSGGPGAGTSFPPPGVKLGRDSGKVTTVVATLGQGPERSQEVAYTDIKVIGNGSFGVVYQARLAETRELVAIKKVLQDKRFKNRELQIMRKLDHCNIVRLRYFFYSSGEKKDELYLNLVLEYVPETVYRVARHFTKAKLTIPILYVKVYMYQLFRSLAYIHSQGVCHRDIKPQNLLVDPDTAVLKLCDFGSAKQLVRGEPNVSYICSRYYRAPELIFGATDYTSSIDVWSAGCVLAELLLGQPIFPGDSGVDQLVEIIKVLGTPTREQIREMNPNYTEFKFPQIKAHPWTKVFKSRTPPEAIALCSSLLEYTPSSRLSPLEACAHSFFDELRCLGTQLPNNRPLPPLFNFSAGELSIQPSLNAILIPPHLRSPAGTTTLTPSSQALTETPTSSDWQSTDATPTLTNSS
Chain of Serine/threonine-protein kinase Chk1 (O14757 whole entry): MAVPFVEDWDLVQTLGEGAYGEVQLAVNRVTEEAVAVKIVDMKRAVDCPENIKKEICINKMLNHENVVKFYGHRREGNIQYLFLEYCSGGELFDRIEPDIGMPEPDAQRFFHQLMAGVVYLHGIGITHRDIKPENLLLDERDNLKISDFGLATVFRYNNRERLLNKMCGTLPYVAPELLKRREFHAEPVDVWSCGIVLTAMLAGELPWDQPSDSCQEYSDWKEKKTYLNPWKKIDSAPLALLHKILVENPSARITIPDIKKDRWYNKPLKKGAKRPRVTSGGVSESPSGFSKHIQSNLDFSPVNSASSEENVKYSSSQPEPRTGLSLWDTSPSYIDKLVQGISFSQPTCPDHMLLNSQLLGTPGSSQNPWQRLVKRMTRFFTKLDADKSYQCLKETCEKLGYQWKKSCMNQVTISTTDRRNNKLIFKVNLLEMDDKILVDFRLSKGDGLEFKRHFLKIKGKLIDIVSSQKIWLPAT
Chain of Mitogen-activated protein kinase kinase kinase kinase 4 (O95819 whole entry): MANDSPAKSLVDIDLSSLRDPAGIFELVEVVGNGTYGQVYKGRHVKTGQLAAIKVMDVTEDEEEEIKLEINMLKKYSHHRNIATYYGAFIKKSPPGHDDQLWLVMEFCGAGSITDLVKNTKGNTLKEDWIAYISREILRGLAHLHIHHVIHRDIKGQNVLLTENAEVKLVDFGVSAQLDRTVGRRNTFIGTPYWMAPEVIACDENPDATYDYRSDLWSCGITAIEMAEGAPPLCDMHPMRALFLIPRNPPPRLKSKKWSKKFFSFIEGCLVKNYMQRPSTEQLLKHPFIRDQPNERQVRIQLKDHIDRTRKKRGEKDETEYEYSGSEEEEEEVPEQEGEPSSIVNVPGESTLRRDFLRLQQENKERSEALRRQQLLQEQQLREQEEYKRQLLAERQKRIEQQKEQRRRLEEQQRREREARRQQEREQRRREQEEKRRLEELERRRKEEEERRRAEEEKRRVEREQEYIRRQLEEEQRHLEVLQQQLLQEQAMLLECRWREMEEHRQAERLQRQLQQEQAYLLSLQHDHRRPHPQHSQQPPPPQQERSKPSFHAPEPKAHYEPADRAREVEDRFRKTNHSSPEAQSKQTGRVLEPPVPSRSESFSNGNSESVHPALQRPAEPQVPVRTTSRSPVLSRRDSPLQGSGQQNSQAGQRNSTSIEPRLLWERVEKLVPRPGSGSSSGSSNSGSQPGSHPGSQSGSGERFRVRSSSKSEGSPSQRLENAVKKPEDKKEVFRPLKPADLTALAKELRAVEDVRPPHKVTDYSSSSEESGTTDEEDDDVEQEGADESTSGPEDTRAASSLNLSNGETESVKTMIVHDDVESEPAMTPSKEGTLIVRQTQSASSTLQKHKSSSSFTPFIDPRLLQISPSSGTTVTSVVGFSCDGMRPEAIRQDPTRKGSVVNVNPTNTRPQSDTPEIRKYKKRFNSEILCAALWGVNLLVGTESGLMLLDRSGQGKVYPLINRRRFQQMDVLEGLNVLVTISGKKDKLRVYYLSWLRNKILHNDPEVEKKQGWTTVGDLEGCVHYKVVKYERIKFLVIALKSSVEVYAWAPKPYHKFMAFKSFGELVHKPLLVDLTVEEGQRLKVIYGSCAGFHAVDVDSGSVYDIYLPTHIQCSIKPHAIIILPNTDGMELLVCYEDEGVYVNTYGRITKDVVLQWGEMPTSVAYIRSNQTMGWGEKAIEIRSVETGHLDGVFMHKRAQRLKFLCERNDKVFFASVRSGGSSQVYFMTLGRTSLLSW
Chain of Sphingosine 1-phosphate receptor 1 (P21453 whole entry): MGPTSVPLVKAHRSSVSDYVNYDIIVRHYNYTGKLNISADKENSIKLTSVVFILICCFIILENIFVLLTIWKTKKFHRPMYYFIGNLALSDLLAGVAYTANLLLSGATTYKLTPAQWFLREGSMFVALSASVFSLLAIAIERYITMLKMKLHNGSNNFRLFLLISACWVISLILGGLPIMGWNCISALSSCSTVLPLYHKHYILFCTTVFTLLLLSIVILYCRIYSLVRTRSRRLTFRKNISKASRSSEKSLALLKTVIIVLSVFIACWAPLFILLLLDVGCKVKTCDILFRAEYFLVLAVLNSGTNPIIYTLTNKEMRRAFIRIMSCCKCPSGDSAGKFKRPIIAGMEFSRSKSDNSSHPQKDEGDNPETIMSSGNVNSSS
Chain of Intestinal-type alkaline phosphatase (P09923 whole entry): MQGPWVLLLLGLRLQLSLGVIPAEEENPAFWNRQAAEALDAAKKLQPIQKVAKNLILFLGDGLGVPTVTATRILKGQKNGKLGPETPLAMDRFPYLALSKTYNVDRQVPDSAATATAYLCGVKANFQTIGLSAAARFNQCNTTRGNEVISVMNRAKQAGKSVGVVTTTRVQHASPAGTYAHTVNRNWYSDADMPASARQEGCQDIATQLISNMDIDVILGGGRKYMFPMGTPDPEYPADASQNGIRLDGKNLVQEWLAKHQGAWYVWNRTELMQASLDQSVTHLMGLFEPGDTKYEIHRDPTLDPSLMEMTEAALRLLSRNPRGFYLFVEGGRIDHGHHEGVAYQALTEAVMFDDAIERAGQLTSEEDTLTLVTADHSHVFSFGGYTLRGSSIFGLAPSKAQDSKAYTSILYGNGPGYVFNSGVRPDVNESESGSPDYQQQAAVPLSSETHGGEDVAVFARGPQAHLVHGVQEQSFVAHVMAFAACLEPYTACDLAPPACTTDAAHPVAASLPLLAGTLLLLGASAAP
Chain of Mitogen-activated protein kinase 14 (Q16539 whole entry, the tested form may be a part): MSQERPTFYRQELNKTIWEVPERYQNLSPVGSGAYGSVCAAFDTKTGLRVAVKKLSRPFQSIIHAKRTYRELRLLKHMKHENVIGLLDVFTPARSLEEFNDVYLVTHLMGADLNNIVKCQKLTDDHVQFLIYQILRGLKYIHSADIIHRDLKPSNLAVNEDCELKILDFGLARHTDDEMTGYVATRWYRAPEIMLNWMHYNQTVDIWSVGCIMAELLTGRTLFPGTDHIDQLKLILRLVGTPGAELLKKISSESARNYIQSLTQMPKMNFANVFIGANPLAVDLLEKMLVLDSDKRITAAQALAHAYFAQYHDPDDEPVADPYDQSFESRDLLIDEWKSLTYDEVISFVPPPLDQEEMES

For the compound `O=C(O)CC(C(=O)O)N1C(=O)/C(=C/C=C/c2ccco2)SC1=S` (centres undefined), the half-inhibitory concentration (IC50) (commonly the concentration needed to halve the response being measured) in assay [1] is 36.6 µM (active); in assay [2], > 100 µM (inactive); in assay [3], 91.8 µM (active); in [4], > 122 µM (inactive); at Troponin, cardiac muscle, > 71.5 µM (inactive). For the same compound, the EC50 (as a rule, the concentration at which the effect is half-maximal) in [5] was 23.3 µM (active).

As for `O=C(Nc1cccc(C2Nc3ccc4ccccc4c3C3C=CCC32)c1)c1ccc(F)cc1` (centres undefined), the Ki (commonly a measure of affinity in units of concentration, obtained from inhibition or displacement) was > 5.01 µM (inactive) in [6] and > 3.98 µM (inactive) in assay [7].

`Cc1ccc(C(=O)OCn2ncc(Cl)c(Cl)c2=O)cc1`: the IC50 with CHO was 1.53 µM (active); in assay [8], 10.6 µM (not active).

On to `Cc1ccc(-c2cc(-c3cc(Br)ccc3O)[nH]c(=O)c2C#N)s1`, for which the inhibition constant (Ki) in [9] was 1.58 µM (active); in [10] it was > 3.16 µM (inactive).

In the case of `CCCC(=O)NC(c1cccs1)c1cc(Cl)c2cccnc2c1O` (centres undefined), the concentration at half-maximal activity (AC50) (as a rule, the concentration at which the activity in the assay is half-maximal) in assay [11] was 1.06 µM (active). Moreover, the concentration giving a half-maximal response (EC50) in “cells” was > 350 µM (not active).

Values taken from ChEMBL document CHEMBL1201862, “PubChem BioAssay data set” (2004).
